Reference: US20050288347A1, “Certain triazole-based compounds, compositions, and uses thereof” (priority 2004, published 2005)
“Also recorded” adds a separate entry of the source.

Test system: protein kinase
Test: HTS ATP-utilizing enzyme assay, off-chip mobility-shift format (Caliper HTS 250)
Format: biochemical, human
Conditions: test compound 10 μM; for protein kinase against which the compound exhibits inhibitory activity (Table 3): active = activity greater than three-sigma from the mean of the predominately inactive population for that enzyme; for Kinase: kinase(s) for which the compound exhibits protein kinase inhibitory activity, active = greater than three-sigma from the mean activity of inactive compounds
How it was run: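 Single-point screen at 10 μM compound in HEPES pH 7.5 buffer with Triton X-100 and BSA, 2.5 h at 20–22 °C. Substrate-to-phosphopeptide ratio measured by off-chip microfluidic mobility shift; EDTA wells as 100% and DMSO wells as 0% control, hits called at three-sigma limits.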

| Compound | protein kinase against which the compound exhibits inhibitory activity (Table 3) | Kinase |
| --- | --- | --- |
| Cc1ccc(CSc2nnc(Cc3ccccc3)[nH]2)cc1 [3-benzyl-5-(4-methylbenzylthio)-4H-1,2,4-triazole] | AURORA-A | – |
| Cn1c(SCC(=O)O)nnc1-c1ccc(O)cc1 [2-(5-(4-hydroxyphenyl)-4-methyl-4H-1,2,4-triazol-3-ylthio)acetic acid] | – | GSK3-β; also recorded: MAPKAPK-2 |
| Cc1nnc(SCC(=O)N2CCCc3ccccc32)n1-c1ccccc1 | – | c-TAK1 |
| COc1ccccc1-n1c(SCC(=O)NN(O)C(=O)c2ccccc2)nnc1-c1ccccc1O | FYN and FLT-3 and SYK | – |
| COc1ccc(-n2c(COc3ccc4ccccc4c3)nnc2SCC(=O)O)cc1 | – | AURORA-A |
| COc1ccc(NCc2nnc(SCC(=O)Nc3ccccc3C(F)(F)F)n2-c2ccccc2)cc1 | – | PDGFRR-α |
| Cc1cc(OCc2nnc(SCCC(=O)O)n2C)ccc1Cl | AURORA-A | – |
| COc1ccc(NCc2nnc(SCC(=O)Nc3cccc(Cl)c3)n2-c2ccc(C)cc2)cc1 | – | PDGFRR-α and FYN and AURORA-A |
| O=C(CSc1nnc[nH]1)N1c2ccccc2CCc2ccccc21 | LCK | – |
| Cc1ccc(NCc2nnc(SCC(N)=O)n2Cc2ccco2)c(C)c1 | – | PDGFRR-α |
| CCc1nnc(SCc2ccccc2)n1Cc1ccc(Cl)c(Cl)c1 | GSK3-α; also recorded: GSK3-β; also recorded: AURORA-A | – |
| Clc1ccccc1CSc1nncn1-c1cccnc1 [3-(3-(2-chlorobenzylthio)-4H-1,2,4-triazol-4-yl)pyridine] | PDGFRR-α | – |
| CCOc1ccc(NCc2nnc(SCCN3CCCCC3)n2-c2ccccc2)cc1 | PDGFRR-α and FYN | – |
| O=C(CSc1nnc(Cc2ccccc2)n1Cc1ccccc1)Nc1ccccc1-c1ccccc1 [N-(biphenyl-2-yl)-2-(4,5-dibenzyl-4H-1,2,4-triazol-3-ylthio)acetamide] | – | CDK2-cyclinE |
| CCOc1ccc(NCc2nnc(SCCN3CCOCC3)n2-c2cccc(Cl)c2)cc1 | FYN and FLT-3 and PDGFRR-α | – |
| COc1ccc(NCc2nnc(SCC(=O)Nc3ncc(C)s3)n2-c2ccccc2)cc1 | – | PDGFRR-α and FYN |
| Cc1cc(C)nc(SCc2nnc(SCCC(=O)O)n2-c2ccccc2)n1 | CHEK2 | – |
| COC(=O)c1ccc(NC(=O)CSc2nnc(-c3ccccc3O)n2-c2ccccc2OC)cc1 | – | AURORA-A |
| CCn1c(SCC(=O)Nc2nccs2)nnc1-c1ccc(S(=O)(=O)N2CCCC2)cc1 | – | GSK3-β; also recorded: GSK3-α |
| OC(CSc1nnc(-c2cccnc2)[nH]1)C(F)(F)F (stereo not drawn) [1,1,1-trifluoro-3-(5-(pyridin-3-yl)-4H-1,2,4-triazol-3-ylthio)propan-2-ol] | AURORA-A | – |
| Cn1c(COc2ccc3ccccc3c2)nnc1SCC(N)=O | – | FYN |

| Compound | protein kinase against which the compound exhibits inhibitory activity (Table 3) | Kinase |
| --- | --- | --- |
| COc1ccccc1-n1c(SCC(=O)c2ccc(F)cc2)nnc1-c1cccc(Cl)c1 | ROCK2 | – |
| COc1ccc(-c2nnc(SCC(=O)NCC3CCCCC3)n2-c2ccccc2)cc1 | – | AKT3 |
| CCCOc1ccc(CCc2nnc(S)n2-c2ccccc2)cc1 [4-phenyl-5-(4-propoxyphenethyl)-4H-1,2,4-triazole-3-thiol] | – | GSK3-β; also recorded: GSK3-α |
| Cc1cc(C)nc(SCc2nnc(SCC#N)n2-c2cccc(Cl)c2)n1 | – | LYNA |
| CCc1cccc(C)c1NC(=O)CSc1nnc(CNc2ccc(Cl)cc2)n1CC | – | LCK |
| Cc1nnc(SCc2ccccc2)n1Cc1ccc(Cl)c(Cl)c1 [3-(benzylthio)-4-(3,4-dichlorobenzyl)-5-methyl-4H-1,2,4-triazole] | GSK3-α; also recorded: GSK3-β; also recorded: c-TAK1 | – |
| CCn1c(CNc2cccc(C(F)(F)F)c2)nnc1SCC(=O)Oc1ccc(C)cc1 | – | CDK2-cyclinA and CDK1 and CHEK2 |
| NC(=O)c1c(NC(=O)CSc2nnc(-c3ccccc3)n2Cc2ccco2)sc2c1CCC2 | – | GSK3-α and GSK3-β and PAK2 |
| O=C(CSc1nnc(-c2ccc(O)cc2)n1-c1ccccc1)NCc1ccco1 | – | GSK3-β; also recorded: GSK3-α |
| C=C(C)Cn1c(S)nnc1-c1ccccc1Br [5-(2-bromophenyl)-4-(2-methylallyl)-4H-1,2,4-triazole-3-thiol] | – | PDGFRR-α |
| Cc1ccc(-n2c(S)nnc2CNc2ccc(F)cc2)cc1 [5-((4-fluorophenylamino)methyl)-4-p-tolyl-4H-1,2,4-triazole-3-thiol] | – | AURORA-A; also recorded: GSK3-α; also recorded: GSK3-β |
| N#Cc1ccccc1CSc1nnc(-c2ccccc2)[nH]1 [2-((5-phenyl-4H-1,2,4-triazol-3-ylthio)methyl)benzonitrile] | AURORA-A; also recorded: CHEK2; also recorded: GSK3-β | – |
| O=C(CSc1nnc(-c2ccco2)[nH]1)c1ccc(O)c(O)c1 [1-(3,4-dihydroxyphenyl)-2-(5-(furan-2-yl)-4H-1,2,4-triazol-3-ylthio)ethanone] | – | FYN and PDGFRR-α and FLT-3 |
| O=C(O)CSc1nnc(-c2ccc([N+](=O)[O-])cc2)[nH]1 [2-(5-(4-nitrophenyl)-4H-1,2,4-triazol-3-ylthio)acetic acid] | – | GSK3-α; also recorded: GSK3-β; also recorded: DYRK2 |
| O=C(O)CCSc1nnc(-c2ccc(O)cc2)n1-c1cccc(Cl)c1 | GSK3-β; also recorded: GSK3-α | – |
| COc1ccc(-c2nnc(SCC(C)=O)n2-c2ccccc2)cc1 [1-(5-(4-methoxyphenyl)-4-phenyl-4H-1,2,4-triazol-3-ylthio)propan-2-one] | – | INSR |
| COc1ccc(-n2c(COc3cccc(C)c3)nnc2SC(C)C(=O)O)cc1 (stereo not drawn) | – | AURORA-A |
| CCOc1ccc(NCc2nnc(SCCN3CCCCC3)n2-c2ccc(C)cc2)cc1 | FYN and PDGFRR-α | – |
| CC(C)=CCSc1nnc(CCC2CCCC2)n1CCCN1CCOCC1 | GSK3-α | – |
| O=C(CSc1nnc(COc2ccc(Cl)cc2)[nH]1)c1ccccc1 [2-(5-((4-chlorophenoxy)methyl)-4H-1,2,4-triazol-3-ylthio)-1-phenylethanone] | – | GSK3-α; also recorded: FLT-3; also recorded: GSK3-β |
| Clc1ccc(CSc2nnc(-c3ccncc3)n2-c2ccccc2)cc1 [4-(5-(4-chlorobenzylthio)-4-phenyl-4H-1,2,4-triazol-3-yl)pyridine] | AURORA-A and PKA and MSK1 | – |

| Compound | protein kinase against which the compound exhibits inhibitory activity (Table 3) | Kinase |
| --- | --- | --- |
| CCn1c(COc2ccccc2)nnc1SCC(=O)Nc1sc2c(c1C#N)CCCC2 | – | AKT1 |
| OC(CSc1nnc(-c2cccc(C(F)(F)F)c2)[nH]1)C(F)(F)F (stereo not drawn) | AURORA-A; also recorded: FLT-3; also recorded: GSK3-β | – |
| COc1ccccc1-n1c(SCC(=O)O)nnc1-c1ccccc1C [2-(4-(2-methoxyphenyl)-5-o-tolyl-4H-1,2,4-triazol-3-ylthio)acetic acid] | – | CHEK2 |
| COCCn1c(SCC(=O)Nc2ccccc2C(=O)OC)nnc1-c1cc2ccccc2cc1O | – | AURORA-A; also recorded: DAPK1 |
| COc1ccc(-c2nnc(SCc3ccncc3)[nH]2)cc1 [4-((5-(4-methoxyphenyl)-4H-1,2,4-triazol-3-ylthio)methyl)pyridine] | FLT-3; also recorded: DYRK2; also recorded: GSK3-α | – |
| Cc1nnc(SCC(=O)Nc2cccc(Cl)c2)n1C [N-(3-chlorophenyl)-2-(4,5-dimethyl-4H-1,2,4-triazol-3-ylthio)acetamide] | – | DAPK1 |
| CCn1c(S)nnc1COc1ccc(OC)cc1 [4-ethyl-5-((4-methoxyphenoxy)methyl)-4H-1,2,4-triazole-3-thiol] | – | GSK3-β; also recorded: GSK3-α; also recorded: CDK2-cyclinE |
| N#CCSc1nnc(C2CCCCC2)[nH]1 [2-(5-cyclohexyl-4H-1,2,4-triazol-3-ylthio)acetonitrile] | – | GSK3-α |
| CSCCc1nnc(SCC(=O)O)[nH]1 [2-(5-(2-(methylthio)ethyl)-4H-1,2,4-triazol-3-ylthio)acetic acid] | – | GSK3-α; also recorded: GSK3-β |
| Clc1ccc(Cn2c(CCC3CCCC3)nnc2SCc2ccccc2)cc1Cl | GSK3-β; also recorded: AURORA-A; also recorded: c-TAK1 | – |
| Cn1c(S)nnc1C1CCCCC1 [5-cyclohexyl-4-methyl-4H-1,2,4-triazole-3-thiol] | – | AKT1 |
| Cc1cccc(OCc2nnc(SCC(=O)N3CCCc4ccccc43)n2Cc2ccco2)c1C | – | AKT1 |
| O=C(O)c1ccc(CSc2nnc(-c3ccc(OC(F)(F)F)cc3)[nH]2)cc1 | FLT-3; also recorded: AURORA-A; also recorded: DYRK2 | – |
| COc1ccc(-n2c(SCCN3CCOCC3)nnc2-c2ccc(O)cc2)cc1 | GSK3-α; also recorded: GSK3-β | – |
| Cc1ccc(NCc2nnc(SCC(=O)N3c4ccccc4Sc4ccccc43)n2C)cc1 | – | DAPK1 |
| Cc1nnc(SCC(=O)c2ccccc2)[nH]1 [2-(5-methyl-4H-1,2,4-triazol-3-ylthio)-1-phenylethanone] | – | GSK3-α; also recorded: GSK3-β; also recorded: DYRK2 |
| COCCCn1c(SCC(=O)OCc2ccccc2)nnc1-c1ccc(OC)cc1 | – | CDK2-cyclinE and MSK1 |
| COc1ccccc1-n1c(SCCCC(=O)OCc2ccccc2)nnc1-c1ccccc1 [benzyl 4-(4-(2-methoxyphenyl)-5-phenyl-4H-1,2,4-triazol-3-ylthio)butanoate] | AURORA-A | – |
| CCCCSc1nnc(-c2cccc(C(F)(F)F)c2)[nH]1 [3-(butylthio)-5-(3-(trifluoromethyl)phenyl)-4H-1,2,4-triazole] | AURORA-A; also recorded: FLT-3; also recorded: GSK3-α | – |
| COc1ccc(-n2c(SC(C)C(=O)Nc3ccc(C(C)=O)cc3)nnc2-c2ccc(O)cc2)cc1 (stereo not drawn) | – | GSK3-β; also recorded: GSK3-α |
| Cn1c(SCC(=O)c2ccccc2)nnc1-c1ccc(O)cc1 | – | GSK3-β and GSK3-α and MSK1 |
